The values that follow come from US7998965B2, “Glutamate aggrecanase inhibitors” (Wyeth LLC, priority 2005, dated 2011).

Test [1] concerns the target T1, purified recombinant human Aggrecanase-2 (Ag2t-Phe628-Strep) (Homo sapiens, UniProt Q9UNA0).
T1 construct: the form used is denoted as Ag2t-Phe628-Strep (MW=41,737)
T1 sequence (Q9UNA0 262-628): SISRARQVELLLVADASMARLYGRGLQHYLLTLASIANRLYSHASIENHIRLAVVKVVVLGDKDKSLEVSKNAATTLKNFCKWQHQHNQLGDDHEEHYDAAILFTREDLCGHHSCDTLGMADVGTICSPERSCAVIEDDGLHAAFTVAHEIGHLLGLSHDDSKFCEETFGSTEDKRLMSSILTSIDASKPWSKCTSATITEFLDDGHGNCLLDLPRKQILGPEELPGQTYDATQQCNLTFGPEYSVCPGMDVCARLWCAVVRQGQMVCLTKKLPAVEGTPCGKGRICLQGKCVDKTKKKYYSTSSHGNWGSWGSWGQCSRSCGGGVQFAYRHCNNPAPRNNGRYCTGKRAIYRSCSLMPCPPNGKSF
The experiment in a line: In vitro fluorescence screen for Aggrecanase-2 inhibitors. The format is biochemical. Conditions: for IC50: read-out: Agg 2 IC50; for Ki: read-out: Ki Agg2.

In test [2] the target is T2, purified recombinant human Aggrecanase-1 (rAgg1) (Homo sapiens, UniProt O75173).
T2 sequence (O75173 213-837): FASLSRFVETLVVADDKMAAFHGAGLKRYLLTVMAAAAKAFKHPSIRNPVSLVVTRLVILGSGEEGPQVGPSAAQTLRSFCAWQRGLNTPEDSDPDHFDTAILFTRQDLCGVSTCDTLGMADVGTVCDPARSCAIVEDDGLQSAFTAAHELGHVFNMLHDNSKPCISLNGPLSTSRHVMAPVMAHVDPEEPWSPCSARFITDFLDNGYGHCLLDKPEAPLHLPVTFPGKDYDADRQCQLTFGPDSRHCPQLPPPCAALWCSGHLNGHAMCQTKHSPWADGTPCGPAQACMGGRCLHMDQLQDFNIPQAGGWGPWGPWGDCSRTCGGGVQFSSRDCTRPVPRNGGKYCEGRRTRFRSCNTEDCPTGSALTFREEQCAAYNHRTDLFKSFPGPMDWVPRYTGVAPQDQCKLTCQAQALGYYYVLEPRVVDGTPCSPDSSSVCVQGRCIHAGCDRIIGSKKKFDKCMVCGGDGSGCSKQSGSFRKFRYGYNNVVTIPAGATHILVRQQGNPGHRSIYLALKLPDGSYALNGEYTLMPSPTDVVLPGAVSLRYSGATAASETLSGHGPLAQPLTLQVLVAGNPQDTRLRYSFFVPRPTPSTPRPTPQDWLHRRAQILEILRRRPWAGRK
The test is described as follows: In vitro fluorescence screen for Aggrecanase-1 inhibitors. Format: biochemical. Further details: Agg1 % at concentration: scale not given here. Conditions: for IC50: read-out: Agg1 IC50; for Ki: read-out: Ki Agg1.

Structures are written as SMILES. Where two headings read alike, the source gives them in different places.

As to `CC(C)(Cc1ccc(Cl)cc1)NC(=O)[C@H](CCC(=O)O)NC(=O)c1ccc(-c2ccc(Cl)s2)cc1` [N-[2-(4-chlorophenyl)-1,1-dimethylethyl]-N^2-[4-(5-chloro-2-thienyl)benzoyl]-L-α-glutamine], in test [1] (Table 3), the half-inhibitory concentration (IC50) was in the range of 70 to 200 nM and the Ki is 51 nM. Further, in test [2] (Table 3), the concentration for half-maximal inhibition (IC50) is less than 30 nM and the Ki was 5.4 nM. Regarding `CCOc1cccc(-c2ccc(C(=O)N[C@@H](CCC(=O)O)C(=O)NC(C)(C)Cc3ccc(F)cc3)cc2)c1` [Example 17DD, N^2-[(3′-ethoxybiphenyl-4-yl)carbonyl]-N-[2-(4-fluorophenyl)-1,1-dimethylethyl]-L-α-glutamine], the IC50 in test [1] (Table 2) was 1190 nM; in test [2] (Table 2), less than 30 nM. `COc1cc(CNC(=O)[C@H](CCC(=O)O)NC(=O)c2ccc(-c3ccc(CBr)cc3)cc2)cc(OC)c1OC` [Example 8MMMMMMM, N^2-{[4′-(bromomethyl)biphenyl-4-yl]carbonyl}-N-(3,4,5-trimethoxybenzyl)-L-α-glutamine]: the IC50 came out at 614 nM in test [1] (Table 3) and 198 nM in test [2] (Table 3). As for `CC(C)(Cc1ccc(Cl)cc1)NC(=O)[C@H](CCC(=O)O)NC(=O)c1cccc(-c2cccs2)c1` [N-[2-(4-chlorophenyl)-1,1-dimethylethyl]-N^2-[3-(2-thienyl)benzoyl]-L-α-glutamine], the “Agg 2 % at concentration” value in test [1] (Table 3, at 25000 (nM)) came out at 10%. Further, the “Agg1 % at concentration” value in test [2] (Table 3, at 25000 (nM)) was 16%.

On to `O=C(O)CC[C@H](NC(=O)c1ccc(C#CC(O)(c2ccccc2)c2ccccc2)cc1)C(=O)NCc1ccccc1` [Example 12K, N-benzyl-N^2-[4-(3-hydroxy-3,3-diphenylprop-1-yn-1-yl)benzoyl]-L-α-glutamine], for which the IC50 in test [1] (Table 2) was greater than 22000 nM; in test [2] (Table 2) it was roughly 25000 nM. In the case of `O=C(O)CC[C@H](NC(=O)c1ccc(-c2ccccc2)cc1)C(=O)NCCC(c1ccccc1)c1ccccc1` [Example 8OOO, N^2-(biphenyl-4-ylcarbonyl)-N^1-(3,3-diphenylpropyl)-L-α-glutamine], the half-inhibitory concentration (IC50) in test [1] (Table 1) turned out to be 1000 nM; in test [2] (Table 1), 280 nM. For `COc1cc(COc2ccc(-c3ccc(C(=O)N[C@@H](CCC(=O)O)C(=O)NC(C)(C)Cc4ccccc4)cc3)cc2)cc(OC)c1` [Example 19C, N^2-({4′-[(3,5-dimethoxybenzyl)oxy]biphenyl-4-yl}carbonyl)-N-(1,1-dimethyl-2-phenylethyl)-L-α-glutamine], the 50% inhibitory concentration (IC50) in test [1] (Table 2) was 75 nM; in test [2] (Table 2), 140 nM. Consider `CC(C)(Cc1ccc(Cl)cc1)NC(=O)[C@H](CCC(=O)O)NC(=O)c1ccc(-c2ccccc2)s1` [Example 8ZZZZZZZ, N-[2-(4-chlorophenyl)-1,1-dimethylethyl]-N^2-[(5-phenyl-2-thienyl)carbonyl]-L-α-glutamine], for which, in test [1] (Table 3), the IC50 lay in the range of 200 to 600 nM and the Ki came to 290 nM. Also, in test [2] (Table 3), the IC50 was less than 30 nM and the Ki stood at 12.7 nM. As to `CC(C)(Cc1ccc(Cl)cc1)NC(=O)[C@H](CCC(=O)O)NC(=O)c1ccc(-c2cccnc2)s1` [Example 8JJJJJJJJ, N-[2-(4-chlorophenyl)-1,1-dimethylethyl]-N^2-[(5-pyridin-3-yl-2-thienyl)carbonyl]-L-α-glutamine], the concentration for half-maximal inhibition (IC50) in test [1] (Table 3) was 800 to 2500 nM; in test [2] (Table 3), less than 30 nM. Take `Cc1cccc(CNC(=O)[C@H](CCC(=O)O)NC(=O)c2ccc3c(c2)C(=O)c2ccccc2-3)c1` [Example 8DDDDD, N^1-(3-methylbenzyl)-N^2-[(9-oxo-9H-fluoren-2-yl)carbonyl]-L-α-glutamine]: the IC50 stood at 1100 nM in test [1] (Table 2) and 315 nM in test [2] (Table 2).

Turning to `CC(C)(Cc1ccc(Cl)s1)NC(=O)[C@H](CCC(=O)O)NC(=O)c1ccc(-c2ccccc2)cc1` [Example 8JJJJJJJ, N^2-(biphenyl-4-ylcarbonyl)-N-[2-(5-chloro-2-thienyl)-1,1-dimethylethyl]-L-α-glutamine], the IC50 in test [1] (Table 3) is 53 nM; in test [2] (Table 3), less than 30 nM. The matching figures for `CC(C)(Cc1ccc(Cl)cc1)NC(=O)[C@H](CCC(=O)O)NC(=O)c1ccc(-c2ccncc2)s1` [N-[2-(4-chlorophenyl)-1,1-dimethylethyl]-N^2-[(5-pyridin-4-yl-2-thienyl)carbonyl]-L-α-glutamine]: 3400 nM and 40 nM. On to `O=C(O)CC[C@H](NC(=O)c1ccc(-c2cccc(CO)c2)cc1)C(=O)NCc1ccccc1` [Example 17JJ, N-benzyl-N^2-{[3′-(hydroxymethyl)biphenyl-4-yl]carbonyl}-L-α-glutamine], for which the figures for the IC50 in test [1] (Table 2) and in test [2] (Table 2) were 19500 nM and 2400 nM, respectively. On to `O=C(O)CC[C@H](NC(=O)c1ccc(-c2ccccc2)cc1)C(=O)NCCc1ccc(Br)cc1` [Example 8KKK, N^2-(biphenyl-4-ylcarbonyl)-N^1-[2-(4-bromophenyl)ethyl]-L-α-glutamine], for which the IC50 turned out to be 2000 nM in test [1] (Table 1) and 120 nM in test [2] (Table 1).

Consider `COc1cccc(C#Cc2ccc(C(=O)N[C@@H](CCC(=O)O)C(=O)NCc3ccccc3)cc2)c1` [Example 12L, N-benzyl-N^2-{4-[(3-methoxyphenyl)ethynyl]benzoyl}-L-α-glutamine], for which the IC50 in test [1] (Table 2) was greater than 22000 nM; in test [2] (Table 2), roughly 22000 nM. `COc1cc(CNC(=O)[C@H](CCC(=O)O)NC(=O)c2cccc3c2Cc2ccccc2-3)cc(OC)c1OC` [Example 8LLLL, N^2-(9H-fluoren-1-ylcarbonyl)-N^1-(3,4,5-trimethoxybenzyl)-L-α-glutamine]: in test [2] (Table 1), the “Agg1 IC50 (nM)” value is given as “no inh”. With `O=C(O)CC[C@H](NC(=O)c1ccc(-c2ccccc2)cc1)C(=O)NCCc1ccc(-c2ccncc2)cc1` [Example 10H, N^2-(biphenyl-4-ylcarbonyl)-N^1-[2-(4-pyridin-4-ylphenyl)ethyl]-L-α-glutamine], the IC50 in test [2] (Table 1) was 300 nM. Still for that read-out and setting: as for `O=C(O)CC[C@H](NC(=O)c1ccc(-c2ccccc2)cc1)C(=O)Nc1ccccc1Cc1ccccc1` [Example 8QQQQQQ, N^1-(2-benzylphenyl)-N^2-(1,1′-biphenyl-4-ylcarbonyl)-L-α-glutamine], the figure is 690 nM. Same read-out and setting: then `O=C(O)CC[C@H](NC(=O)c1ccc(-c2ccc(NC(=O)c3cc4ccccc4o3)cc2)cc1)C(=O)O` [Example 31, N-({4′-[(1-benzofuran-2-ylcarbonyl)amino]-1,1′-biphenyl-4-yl}carbonyl)-L-α-glutamic acid], with 1000 nM. Same read-out and setting: as for `C=CCOc1ccc(-c2ccc(C(=O)N[C@@H](CCC(=O)O)C(=O)NCc3ccccc3)cc2)cc1` [Example 15E, N^2-{[4′-(allyloxy)-1,1′-biphenyl-4-yl]carbonyl}-N^1-benzyl-L-α-glutamine], the figure is 3500 nM; as for `CCc1ccc(-c2ccc(C(=O)N[C@@H](CCC(=O)O)C(=O)NCc3ccccc3)cc2)cc1` [Example 13C, N^1-benzyl-N^2-[(4′-ethyl-1,1′-biphenyl-4-yl)carbonyl]-L-α-glutamine], 9600 nM; as for `CC(C)(Cc1ccccc1)NC(=O)[C@H](CCC(=O)O)NC(=O)c1ccc2c(c1)Cc1ccccc1-2` [Example 6D, N^1-(1,1-dimethyl-2-phenylethyl)-N^2-(9H-fluoren-2-ylcarbonyl)-L-α-glutamine], 45 nM.

On to `O=C(O)CC[C@H](NC(=O)c1cccc(-c2cccs2)c1)C(=O)NCc1ccccc1` [Example 17XX, N^1-benzyl-N^2-(3-thien-2-ylbenzoyl)-L-α-glutamine], for which the “Agg1 IC50 (nM)” value in test [2] (Table 1) is “no inh”. For `O=C(O)CC[C@H](NC(=O)c1ccc(-c2ccccc2)cc1)C(=O)NCCc1ccc(Cl)cc1` [Example 8UU, N^2-(biphenyl-4-ylcarbonyl)-N^1-[2-(4-chlorophenyl)ethyl]-L-α-glutamine], the IC50 in test [2] (Table 1) came out at 200 nM. Take `COc1cccc(COc2ccc(-c3ccc(C(=O)N[C@@H](CCC(=O)O)C(=O)NCc4ccccc4)cc3)cc2)c1` [Example 15F, N^1-benzyl-N^2-({4′-[(3-methoxybenzyl)oxy]-1,1′-biphenyl-4-yl}carbonyl)-L-α-glutamine]: in test [2] (Table 1), the IC50 was 600 nM. The same measure, in the same setting: as for `CCOc1ccccc1-c1ccc(C(=O)N[C@@H](CCC(=O)O)C(=O)NCc2ccccc2)cc1` [Example 13E, N^1-benzyl-N^2-[(2′-ethoxy-1,1′-biphenyl-4-yl)carbonyl]-L-α-glutamine], the figure is roughly 25000 nM. Still for that read-out and setting: then `COc1ccc(CNC(=O)[C@H](CCC(=O)O)NC(=O)c2ccc(-c3ccccc3)cc2)cc1` [Example 8K, N^2-(1,1′-biphenyl-4-ylcarbonyl)-N^1-(4-methoxybenzyl)-L-α-glutamine], with 300 nM.
